pKi: −log10 of the molar value. Where a name gives a salt, the structure may show the parent alone. Read-outs that look alike come from different tables or passages of the source. Square brackets hold non-standard residues; d marks the D form. Peptide text beside a SMILES is read from it. * marks the point of attachment. dChg = N[C@@H](C(=O)O)C1CCCCC1; Agmatine = N=C(N)NCCCCN*; Aze = O=C(O)[C@@H]1CCN1

Common to all, as to type: biochemical
Experiment [1] deals with mMASP-2 (Mus musculus (Mouse), UniProt Q91WP0). Put plainly: Enzymatic inhibition of mMASP-2. As to conditions: read-out: mMASP-2 Ki.
mMASP-2, sequence (Q91WP0 20-685): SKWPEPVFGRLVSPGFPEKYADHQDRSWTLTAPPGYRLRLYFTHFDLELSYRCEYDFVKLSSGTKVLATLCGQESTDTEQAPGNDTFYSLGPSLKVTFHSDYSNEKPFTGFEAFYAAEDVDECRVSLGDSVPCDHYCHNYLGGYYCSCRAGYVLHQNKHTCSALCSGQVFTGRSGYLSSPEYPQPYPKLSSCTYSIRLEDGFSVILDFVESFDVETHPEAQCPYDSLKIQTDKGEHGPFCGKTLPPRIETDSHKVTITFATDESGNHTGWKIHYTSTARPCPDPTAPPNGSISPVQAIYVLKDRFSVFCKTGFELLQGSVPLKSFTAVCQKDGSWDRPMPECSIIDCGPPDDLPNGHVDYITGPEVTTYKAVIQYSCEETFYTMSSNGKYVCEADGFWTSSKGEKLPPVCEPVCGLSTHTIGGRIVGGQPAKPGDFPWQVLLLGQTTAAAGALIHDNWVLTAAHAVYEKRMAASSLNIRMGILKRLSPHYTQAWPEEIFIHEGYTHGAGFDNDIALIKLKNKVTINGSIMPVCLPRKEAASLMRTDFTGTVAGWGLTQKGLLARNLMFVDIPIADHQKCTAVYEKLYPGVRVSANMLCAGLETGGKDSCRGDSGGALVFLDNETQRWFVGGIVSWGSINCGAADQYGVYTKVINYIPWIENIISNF
The target in experiment [2] is human α-thrombin (Homo sapiens (Human), UniProt P00734). Briefly: Enzymatic assay for thrombin (Boc-VPR-AMC substrate). The conditions noted are these: for pKi: read-out: Thrombin Ki; for Ki: Thrombin Ki (μM).
For experiment [3], the target named is MASP-2 (CCP1-CCP2-SP) (Homo sapiens (Human), UniProt O00187). Briefly: biochemical.
MASP-2 (CCP1-CCP2-SP), sequence (O00187 445-686): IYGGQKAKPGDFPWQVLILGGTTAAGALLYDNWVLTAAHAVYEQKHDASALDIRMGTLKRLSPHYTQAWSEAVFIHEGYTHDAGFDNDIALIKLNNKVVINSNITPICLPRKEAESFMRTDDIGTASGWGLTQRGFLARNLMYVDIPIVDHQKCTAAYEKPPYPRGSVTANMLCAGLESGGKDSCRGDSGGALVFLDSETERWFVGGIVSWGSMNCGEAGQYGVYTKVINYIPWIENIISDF
The mark [4] stands for this setting: selectivity for MASP-2 inhibition versus thrombin.
The mark [5] stands for this setting: MASP-2 inhibition versus thrombin.

`Cc1nc(N)ccc1CNC(=O)[C@H](C)NC(=O)[C@H]1C[C@@H](C(C)c2ccccc2)CN1` (mixture of isomers) [compound 1344, (2R,4S)—N—((S)-1-(((6-Amino-2-methylpyridin-3-yl)methyl)amino)-1-oxopropan-2-yl)-4-((±)-1-phenylethyl)pyrrolidine-2-carboxamide Dihydrochloride]: the pKi in experiment [1] is above 6.30; in experiment [2], 5.00 to 5.60; in experiment [3] (read-out: MASP-2 Ki) it was above 6.30. The “MASP-2 vs. thrombin selectivity” value in experiment [3] (setting [4]) is given as “**** (≥100-fold)”.

In the case of `N=C(N)NCCCCNC(=O)[C@@H]1CCN1C(=O)[C@H](N)C1CCCCC1` [compound 1006, (S)-1-((R)-2-Amino-2-cyclohexylacetyl)-N-(4-guanidinobutyl)azetidine-2-carboxamide Dihydrochloride] (H-[dChg]-[Aze]-Agmatine), the pKi in experiment [1], in experiment [2] and in experiment [3] (read-out: MASP-2 Ki) was above 6.30 each time. In experiment [3] (setting [5]), the “MASP-2 vs. thrombin selectivity” value is recorded as “−− (less than 1.0-fold)”.

For `C[C@H](NC(=O)[C@H](N)CCc1ccccc1)C(=O)NCc1ccc2c(N)n[nH]c2c1` [compound 1039], the values for the pKi in experiment [1] and in experiment [2] were above 4.60 and below 4.60, respectively.

For `CN[C@H](CCc1ccccc1)C(=O)N[C@@H](C)C(=O)NCc1ccc(C(=N)N)cc1` [compound 1044], the pKi in experiment [1], in experiment [2] and in experiment [3] (read-out: MASP-2 Ki) was above 6.30 each time. In experiment [3] (setting [5]), the “MASP-2 vs. thrombin selectivity” value is “** (5.0 to 25-fold)”.

With `Cc1ccccc1CC[C@@H](N)C(=O)N[C@@H](C)C(=O)NCc1ccc(C(=N)N)cc1` [compound 1045], the pKi in experiment [1], in experiment [2] and in experiment [3] (read-out: MASP-2 Ki) was above 6.30 throughout. The “MASP-2 vs. thrombin selectivity” value in experiment [3] (setting [5]) is “** (5.0 to 25-fold)”.

Turning to `Cc1cccc(CC[C@@H](N)C(=O)N[C@@H](C)C(=O)NCc2ccc(C(=N)N)cc2)c1` [compound 1046], the pKi in experiment [1], in experiment [2] and in experiment [3] (read-out: MASP-2 Ki) was above 6.30 in each case. Also, the “MASP-2 vs. thrombin selectivity” value in experiment [3] (setting [5]) is given as “** (5.0 to 25-fold)”.

In the case of `C[C@H](NC(=O)[C@H](N)CCc1cccc(F)c1)C(=O)NCc1ccc(C(=N)N)cc1` [compound 1048], the pKi in experiment [1], in experiment [2] and in experiment [3] (read-out: MASP-2 Ki) was above 6.30 throughout. In experiment [3] (setting [5]), the “MASP-2 vs. thrombin selectivity” value is “** (5.0 to 25-fold)”.

In the case of `Cc1cccc(CC[C@@H](N)C(=O)N[C@@H](C)C(=O)NCc2ccc(C(=N)N)cc2)c1C` [compound 1072], the pKi in experiment [1], in experiment [2] and in experiment [3] (read-out: MASP-2 Ki) was above 6.30 in each case. In experiment [3] (setting [5]), the “MASP-2 vs. thrombin selectivity” value was “** (5.0 to 25-fold)”.

In the case of `Cc1cc(C)cc(CC[C@@H](N)C(=O)N[C@@H](C)C(=O)NCc2ccc(C(=N)N)cc2)c1` [compound 1073], the pKi in experiment [1], in experiment [2] and in experiment [3] (read-out: MASP-2 Ki) was above 6.30 each time. For the same compound, the “MASP-2 vs. thrombin selectivity” value in experiment [3] (setting [5]) is “** (5.0 to 25-fold)”.

In the case of `COc1ccccc1CC[C@@H](N)C(=O)N[C@@H](C)C(=O)NCc1ccc(C(=N)N)cc1` [compound 1074], the pKi in experiment [1], in experiment [2] and in experiment [3] (read-out: MASP-2 Ki) was above 6.30 throughout. Besides, the “MASP-2 vs. thrombin selectivity” value in experiment [3] (setting [5]) is listed as “** (5.0 to 25-fold)”.

Turning to `COc1cccc(CC[C@@H](N)C(=O)N[C@@H](C)C(=O)NCc2ccc(C(=N)N)cc2)c1` [compound 1075], the pKi in experiment [1], in experiment [2] and in experiment [3] (read-out: MASP-2 Ki) was above 6.30 throughout. Moreover, in experiment [3] (setting [5]), the “MASP-2 vs. thrombin selectivity” value is “** (5.0 to 25-fold)”.

Take `C[C@H](NC(=O)[C@H](N)CCc1ccc(Cl)cc1)C(=O)NCc1ccc(C(=N)N)cc1` [compound 1080]: the pKi in experiment [1], in experiment [2] and in experiment [3] (read-out: MASP-2 Ki) was above 6.30 throughout. Moreover, in experiment [3] (setting [5]), the “MASP-2 vs. thrombin selectivity” value is recorded as “** (5.0 to 25-fold)”.

For `C[C@H](NC(=O)[C@H](N)Cc1cccc2ccccc12)C(=O)NCc1ccc(C(=N)N)cc1` [compound 1092], the pKi in experiment [1], in experiment [2] and in experiment [3] (read-out: MASP-2 Ki) was above 6.30 in each case. The “MASP-2 vs. thrombin selectivity” value in experiment [3] (setting [5]) was “−− (less than 1.0-fold)”.

With `C[C@H](NC(=O)[C@@H](CCc1ccccc1)NC1CCC1)C(=O)NCc1ccc(C(=N)N)cc1` [compound 1108], the pKi in experiment [1], in experiment [2] and in experiment [3] (read-out: MASP-2 Ki) was above 6.30 in each case. In addition, in experiment [3] (setting [5]), the “MASP-2 vs. thrombin selectivity” value was “* (1.0 to 5.0-fold)”.

Regarding `CCCCCN[C@H](CCc1ccccc1)C(=O)N[C@@H](C)C(=O)NCc1ccc(C(=N)N)cc1` [compound 1125], the pKi in experiment [1], in experiment [2] and in experiment [3] (read-out: MASP-2 Ki) was above 6.30 each time. For the same compound, the “MASP-2 vs. thrombin selectivity” value in experiment [3] (setting [5]) is on record as “−− (less than 1.0-fold)”.

For `C[C@H](NC(=O)[C@@H](CCc1ccccc1)NCc1ccc[nH]1)C(=O)NCc1ccc(C(=N)N)cc1` [compound 1128], the pKi in experiment [1], in experiment [2] and in experiment [3] (read-out: MASP-2 Ki) was above 6.30 throughout. The “MASP-2 vs. thrombin selectivity” value in experiment [3] (setting [5]) is reported as “* (1.0 to 5.0-fold)”.

As for `C[C@H](NC(=O)[C@@H](CCc1ccccc1)NCc1ccccc1)C(=O)NCc1ccc(C(=N)N)cc1` [compound 1134], the pKi in experiment [1], in experiment [2] and in experiment [3] (read-out: MASP-2 Ki) was above 6.30 each time. Also, the “MASP-2 vs. thrombin selectivity” value in experiment [3] (setting [5]) was “−− (less than 1.0-fold)”.

For the compound `C[C@H](NC(=O)[C@@H](CCc1ccccc1)NCc1ccc(N2CCOCC2)cc1)C(=O)NCc1ccc(C(=N)N)cc1` [compound 1149], the pKi in experiment [1], in experiment [2] and in experiment [3] (read-out: MASP-2 Ki) was above 6.30 each time. In experiment [3] (setting [5]), the “MASP-2 vs. thrombin selectivity” value was “** (5.0 to 25-fold)”.

As for `C[C@@H](NC(=O)[C@H](N)CCc1ccccc1)C(=O)NCc1ccc2nc(N)[nH]c2c1` [compound 1170], the pKi in experiment [1] was above 4.60; in experiment [2] it was below 4.60; in experiment [3] (read-out: MASP-2 Ki) it was above 6.30. Moreover, in experiment [3] (setting [5]), the “MASP-2 vs. thrombin selectivity” value is “**** (>100-fold)”.

Turning to `C[C@H](NC(=O)[C@H](N)CCc1ccccc1)C(=O)NCCOc1ccc(N)nc1` [compound 1215], the pKi was above 4.60 in experiment [1] and below 4.60 in experiment [2].

In the case of `C[C@H](NC(=O)[C@H](CCc1ccccc1)NCc1c[nH]c2ccccc12)C(=O)NCc1ccc(C(=N)N)cc1` [compound 1223], the pKi in experiment [1], in experiment [2] and in experiment [3] (read-out: MASP-2 Ki) was above 6.30 each time. The “MASP-2 vs. thrombin selectivity” value in experiment [3] (setting [5]) is “*** (25 to 100-fold)”.

For `Cc1cccc([C@H]2CCN[C@@H](C(=O)N[C@@H](C)C(=O)NCc3ccc(C(=N)N)cc3)C2)c1` [compound 1231, (2R,4S)—N—((S)-1-((4-Carbamimidoylbenzyl)amino)-1-oxopropan-2-yl)-4-(m-tolyl)piperidine-2-carboxamide], the pKi in experiment [1] and in experiment [3] (read-out: MASP-2 Ki) was above 6.30 each time. In experiment [2], this compound returned a Ki of 2.5 to 10 µM. For the same compound, in experiment [3] (setting [4]), the “MASP-2 vs. thrombin selectivity” value is given as “**** (≥100-fold)”.

Consider `C[C@H](NC(=O)[C@@H](CCc1ccccc1)NCc1ccc(-c2nnn[nH]2)cc1)C(=O)NCc1ccc(C(=N)N)cc1` [compound 1233, (R)-2-((4-(1H-Tetrazol-5-yl)benzyl)amino)-N—((S)-1-((4-carbamimidoylbenzyl)amino)-1-oxopropan-2-yl)-4-phenylbutanamide], for which the pKi in experiment [1] and in experiment [3] (read-out: MASP-2 Ki) was above 6.30 in each case. In addition, the Ki in experiment [2] is 0.5 to 2.5 µM. Further, the “MASP-2 vs. thrombin selectivity” value in experiment [3] (setting [4]) is on record as “* (≥1.0 to <5.0-fold)”.

Turning to `C[C@H](NC(=O)[C@@H](CCc1ccccc1)NCc1ccc(OCCO)cc1)C(=O)NCc1ccc(C(=N)N)cc1` [compound 1236, (R)—N—((S)-1-((4-Carbamimidoylbenzyl)amino)-1-oxopropan-2-yl)-2-((4-(2-hydroxyethoxy)benzyl)amino)-4-phenylbutanamide], the pKi in experiment [1], in experiment [2] and in experiment [3] (read-out: MASP-2 Ki) was above 6.30 each time. Besides, the “MASP-2 vs. thrombin selectivity” value in experiment [3] (setting [4]) was “* (≥1.0 to <5.0-fold)”.

For `COc1ccc(-c2c[nH]c(C(=O)N[C@@H](C)C(=O)NCc3ccc(C(=N)N)cc3)c2)cc1` [compound 1238, (S)—N-(1-((4-Carbamimidoylbenzyl)amino)-1-oxopropan-2-yl)-4-(4-methoxyphenyl)-1H-pyrrole-2-carboxamide], the pKi in experiment [1] and in experiment [3] (read-out: MASP-2 Ki) was above 6.30 in each case. This compound also yielded a Ki in experiment [2] of 2.5 to 10 µM. Besides, in experiment [3] (setting [4]), the “MASP-2 vs. thrombin selectivity” value was “*** (≥25 to <100-fold)”.

With `Cc1cccc([C@@H]2CCN[C@@H](C(=O)N[C@@H](C)C(=O)NCc3ccc(C(=N)N)cc3)C2)c1` [compound 1241, (2R,4R)—N—((S)-1-((4-Carbamimidoylbenzyl)amino)-1-oxopropan-2-yl)-4-(m-tolyl)piperidine-2-carboxamide], the pKi in experiment [1], in experiment [2] and in experiment [3] (read-out: MASP-2 Ki) was above 6.30 each time. In experiment [3] (setting [4]), the “MASP-2 vs. thrombin selectivity” value is on record as “* (≥1.0 to <5.0-fold)”.

For `C[C@H](NC(=O)[C@H]1C[C@H](c2ccccc2)CN1)C(=O)NCc1cc(Cl)ccc1O` [compound 1242, (2R,4R)—N—((S)-1-((5-Chloro-2-hydroxybenzyl)amino)-1-oxopropan-2-yl)-4-phenylpyrrolidine-2-carboxamide], the pKi was 5.00 to 5.60 in experiment [1] and 5.60 to 6.30 in experiment [3]. Besides, the Ki in experiment [2] was 2.5 to 10 µM. Also, the “MASP-2 vs. thrombin selectivity” value in experiment [3] (setting [4]) is given as “** (≥5.0 to <25-fold)”.

Consider `Cc1nc(N)ccc1CNC(=O)[C@H](C)NC(=O)[C@H](N)CCc1ccccc1` [compound 1245, (R)-2-Amino-N—((S)-1-(((6-amino-2-methylpyridin-3-yl)methyl)amino)-1-oxopropan-2-yl)-4-phenylbutanamide], for which the negative-log Ki (pKi) in experiment [1] is 4.60 to 5.00; in experiment [3] (read-out: MASP-2 Ki), above 6.30. The compound also showed a Ki in experiment [2] of 10 to 25 µM. Moreover, the “MASP-2 vs. thrombin selectivity” value in experiment [3] (setting [4]) is recorded as “**** (≥100-fold)”.

These data come from US11584714B2 (priority 2018, dated 2023).
